This passage reports IC50 cell viability results from the supplement of paper PMC12137928.

Counter-ions that a name gives are not always drawn.

This assay concerns HCT116. To be noted: 72 h. The procedure, abridged: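 After seeding at 250 cells per well in 1536-well plates, HCT116 cells were given 5 h to attach. CellTiter-Glo luminescence, scaled to 0% for vehicle and -100% for positive control, was pattern-corrected. Fitting with a four-parameter Hill model produced IC50 and maximal efficacy.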

On to `CN(C)CCCC1(c2ccc(F)cc2)OCc2cc(C#N)ccc21` (configuration not stated) [Citalopram hydrobromide], for which the IC50 cell viability reads like this: (ICRF193 0 nM) over 45.8 µM; (ICRF193 200 nM) over 45.8 µM.

On to `Cn1cc(C(=O)[C@@H]2CCc3[nH]cnc3C2)c2ccccc21` [Ramosetron hydrochloride], for which the IC50 cell viability was over 45.8 µM (ICRF193 0 nM) and over 45.8 µM (ICRF193 200 nM).

On to `O=C1CCC(=O)N1CO` [N-Hydroxymethylsuccinimide], for which the IC50 cell viability runs as follows: (ICRF193 0 nM) over 45.8 µM; (ICRF193 200 nM) over 45.8 µM.

With `NCCCC[C@@H]1NC(=O)[C@@H](Cc2c[nH]c3ccccc23)NC(=O)[C@H](c2ccccc2)NC(=O)[C@@H]2C[C@@H](OC(=O)NCCN)CN2C(=O)[C@H](Cc2ccccc2)NC(=O)[C@H](Cc2ccc(OCc3ccccc3)cc2)NC1=O` [Pasireotide (ditrifluoroacetate)], the IC50 cell viability runs as follows: (ICRF193 0 nM) over 45.8 µM; (ICRF193 200 nM) over 45.8 µM.

Take `CC(C)(C)C(=O)OCOC(=O)[C@@H]1N2C(=O)[C@@H](/N=C/N3CCCCCC3)[C@H]2SC1(C)C` [Pivmecillinam]: the IC50 cell viability was over 45.8 µM (ICRF193 0 nM) and over 45.8 µM (ICRF193 200 nM).

Take `CCCN(CCc1cccs1)[C@H]1CCc2c(O)cccc2C1` [Rotigotine]: the IC50 cell viability runs as follows: (ICRF193 0 nM) over 45.8 µM; (ICRF193 200 nM) over 45.8 µM.

Regarding `O=C1C[C@@H]2OCC=C3CN4CC[C@]56c7ccccc7N1[C@H]5[C@H]2[C@H]3C[C@H]46` [Strychnine], the IC50 cell viability by setting is: (ICRF193 0 nM) over 45.8 µM; (ICRF193 200 nM) over 45.8 µM.

For the molecule `O=C(O)CCCC[C@@H]1SC[C@@H]2NC(=O)N[C@@H]21` [Biotin], the IC50 cell viability was over 45.8 µM (ICRF193 0 nM) and over 45.8 µM (ICRF193 200 nM).

Turning to `C=CC[N@@+]12CC[C@@]34c5ccccc5N5/C=C6/[C@H]7C[C@H]8[C@@]9(CC[N@@+]8(CC=C)C/C7=C/CO)c7ccccc7N(/C=C(/[C@@H](C[C@@H]31)/C(=C\CO)C2)[C@H]54)[C@@H]69` [Alcuronium chloride], the IC50 cell viability was over 45.8 µM (ICRF193 0 nM) and over 45.8 µM (ICRF193 200 nM).

`Cc1ccc(/C=N/n2c(-c3ccccc3)csc2=S)cc1` [Fezatione]: the IC50 cell viability was over 45.8 µM (ICRF193 0 nM) and over 45.8 µM (ICRF193 200 nM).

For `CC(N)C12CC3CC(CC(C3)C1)C2` (configuration not stated) [Rimantadine], the IC50 cell viability by setting is: (ICRF193 0 nM) over 45.8 µM; (ICRF193 200 nM) over 45.8 µM.

With `CCOP(=O)(OCC)C(C)NC(=O)N(CCCl)N=O` (configuration not stated) [Fotemustine], the IC50 cell viability is, setting by setting: (ICRF193 0 nM) over 45.8 µM; (ICRF193 200 nM) over 45.8 µM.

As to `NCC(O)c1cccc(O)c1` (configuration not stated) [Norphenylephrine hydrochloride], the IC50 cell viability is, setting by setting: (ICRF193 0 nM) over 45.8 µM; (ICRF193 200 nM) over 45.8 µM.

Regarding `CC(NC(C)(C)C)C(=O)c1cccc(Cl)c1` (configuration not stated) [Bupropion hydrochloride], the IC50 cell viability reads like this: (ICRF193 0 nM) over 45.8 µM; (ICRF193 200 nM) over 45.8 µM.

As for `C/C(=C(\CCOP(=O)(O)O)SC(=O)c1ccccc1)N(C=O)Cc1cnc(C)nc1N` [Benfotiamine], the IC50 cell viability is, setting by setting: (ICRF193 0 nM) over 45.8 µM; (ICRF193 200 nM) over 45.8 µM.

For the molecule `CC(C)C(Br)C(=O)NC(N)=O` (configuration not stated) [Bromisovalum], the IC50 cell viability is, setting by setting: (ICRF193 0 nM) over 45.8 µM; (ICRF193 200 nM) over 45.8 µM.

Turning to `Nc1cc(C(Cl)=C(Cl)Cl)c(S(N)(=O)=O)cc1S(N)(=O)=O` [Clorsulon], the IC50 cell viability is, setting by setting: (ICRF193 0 nM) over 45.8 µM; (ICRF193 200 nM) over 45.8 µM.

In the case of `Nc1c(I)cc(I)c(C(=O)N(CCC(=O)O)c2ccccc2)c1I` [Iobenzamic acid], the IC50 cell viability is over 45.8 µM (ICRF193 0 nM) and over 45.8 µM (ICRF193 200 nM).

For `COC(=O)c1cncn1C(C)c1ccccc1` (configuration not stated) [Metomidate hydrochloride], the IC50 cell viability (ICRF193 0 nM) was over 45.8 µM and the IC50 cell viability (ICRF193 200 nM) is over 45.8 µM.

Consider `CNC(=O)C[C@@H](N)C(=O)N[C@@H](C(=O)N[C@@H]1C(=O)N2[C@@H]1SC(C)(C)[C@@H]2C(=O)O)c1ccc(O)cc1` [Aspoxicillin], for which the IC50 cell viability (ICRF193 0 nM) was over 45.8 µM and the IC50 cell viability (ICRF193 200 nM) is over 45.8 µM.

Regarding `COC(c1ccccc1)(c1ccccc1)[C@H](Oc1nc(C)cc(C)n1)C(=O)O` [Ambrisentan], the IC50 cell viability is over 45.8 µM (ICRF193 0 nM) and over 45.8 µM (ICRF193 200 nM).

Consider `N#Cc1ccc2c(c1)N(CCCN1CCC(O)CC1)c1ccccc1S2` [PERICIAZINE], for which the IC50 cell viability by setting is: (ICRF193 0 nM) over 45.8 µM; (ICRF193 200 nM) over 45.8 µM.

In the case of `C[N+]1(C)[C@@H]2CC[C@H]1C[C@@H](OC(=O)C(O)c1ccccc1)C2` (some centres not stated) [HOMATROPINE METHYLBROMIDE], the IC50 cell viability is, setting by setting: (ICRF193 0 nM) over 45.8 µM; (ICRF193 200 nM) over 45.8 µM.

On to `CCN(CCO)CCCC(C)Nc1ccnc2cc(Cl)ccc12` (configuration not stated) [Hydroxychloroquine sulfate], for which the IC50 cell viability by setting is: (ICRF193 0 nM) over 45.8 µM; (ICRF193 200 nM) over 45.8 µM.

Molecule `CCCCOc1ccc(CC(=O)NO)cc1` [Bufexamac] displayed an IC50 cell viability (ICRF193 0 nM) of over 45.8 µM and an IC50 cell viability (ICRF193 200 nM) of over 45.8 µM.

In the case of `Cc1ccc(/C(=C\CN2CCCC2)c2ccccn2)cc1` [Triprolidine], the IC50 cell viability is, setting by setting: (ICRF193 0 nM) over 45.8 µM; (ICRF193 200 nM) over 45.8 µM.
